The values below come from ChEMBL document CHEMBL3727358, “Inhibitors of inducible form of 6-phosphofructose-2-kinase” (2014).

In one test the target is T1, 6-phosphofructo-2-kinase/fructose-2,6-bisphosphatase 3 (Homo sapiens, UniProt Q16875). Briefly: Inhibition of iPFK2 (unknown origin) assessed as reduction in enzyme-mediated fructose-6-phosphate phosphorylation by measuring ATP consumption incubated for 3 hrs by luciferase-luciferin-coupled chemiluminescence assay.
T1 sequence (Q16875 whole entry): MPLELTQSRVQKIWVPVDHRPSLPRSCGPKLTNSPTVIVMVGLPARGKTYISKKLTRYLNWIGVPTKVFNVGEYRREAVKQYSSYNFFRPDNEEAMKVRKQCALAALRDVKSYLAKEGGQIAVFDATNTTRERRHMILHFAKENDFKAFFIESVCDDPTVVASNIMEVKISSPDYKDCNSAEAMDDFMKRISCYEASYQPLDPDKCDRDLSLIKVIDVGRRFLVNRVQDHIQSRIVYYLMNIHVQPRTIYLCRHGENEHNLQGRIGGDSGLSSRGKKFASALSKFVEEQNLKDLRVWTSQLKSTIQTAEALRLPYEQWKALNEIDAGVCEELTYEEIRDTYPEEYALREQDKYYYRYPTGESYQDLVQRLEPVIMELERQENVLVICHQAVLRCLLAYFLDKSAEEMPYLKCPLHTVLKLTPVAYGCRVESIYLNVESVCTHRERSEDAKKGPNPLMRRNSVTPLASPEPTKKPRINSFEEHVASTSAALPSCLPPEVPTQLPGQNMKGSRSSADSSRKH
As to `COCC(C)Nc1cc(-c2ccc3ncsc3c2)nc(C)n1` (stereo unspecified), the IC50 was greater than 1000 nM. Same read-out and setting: then `CCC(C)Nc1cc(-c2ccc3ncsc3c2)nc(C)n1` (stereo unspecified), with greater than 1000 nM; and `CCCCCNc1cc(-c2ccc3ncsc3c2)nc(C)n1`, with greater than 1000 nM; and `Cc1nc(NC(C)c2cccc(OCc3ccccc3)c2)cc(-c2ccc3ncsc3c2)n1` (stereo unspecified), with greater than 1000 nM. Still for that read-out and setting: then `Cc1nc(NC(C)c2cccc(OCc3cccnc3)c2)cc(-c2ccc3ncsc3c2)n1` (stereo unspecified), with 500 nM; and `Cc1nc(NC(C)c2cccc(-c3cnn(C)c3)c2)cc(-c2ccc3c(c2)OCCO3)n1` (stereo unspecified), with greater than 1000 nM. `Cc1nc(N[C@@H](C)c2cccc(-c3cccn3C)c2)cc(-c2ccc3ncsc3c2)n1`: the IC50 is greater than 1000 nM.

`Cc1nc(NC(C)c2cccc(OCc3csc(C)n3)c2)cc(-c2ccc3ncsc3c2)n1` (stereo unspecified): the IC50 is 500 nM. On the same count and under the same terms, as for `Cc1nc(NC(C)c2cccc(-c3ccoc3)c2)cc(-c2ccc3occ(C)c3c2)n1` (stereo unspecified), the figure is 500 nM; as for `Cc1nc(N[C@@H](C)c2cccc(-c3cc[nH]n3)c2)cc(-c2ccc3ncsc3c2)n1`, 500 nM. Same read-out and setting: as for `Cc1nc(NC(C)c2cccc(-c3ccc(F)nc3C)c2)cc(-c2ccc3ncsc3c2)n1` (stereo unspecified), the figure is 500 nM; as for `CCc1ccc(-c2cc(NC(C)c3cccc(-c4cnn(C)c4)c3)nc(C)n2)cc1` (stereo unspecified), 500 nM. The same measure, in the same setting: then `Cc1nc(NC(C)c2cccc(-c3cnn(C)c3)c2)cc(-c2cccc(O)c2)n1` (stereo unspecified), with 500 nM; and `Cc1nc(NC(C)c2cccc(-c3ccsc3)c2)cc(-c2ccc3occ(C)c3c2)n1` (stereo unspecified), with greater than 1000 nM; and `Cc1nc(NC(C)c2cccc(OCC(=O)NCCN(C)C)c2)cc(-c2ccc3ncsc3c2)n1` (stereo unspecified), with 500 nM.

`Cc1nc(NCCc2ccccn2)cc(-c2ccc3ncsc3c2)n1`: the IC50 was greater than 1000 nM.

In the case of `Cc1nc(NC(C)c2cccc(OCCF)c2)cc(-c2ccc3ncsc3c2)n1` (stereo unspecified), the IC50 was 500 nM. Regarding `Cc1nc(NC(C)c2cccc(OCCCC(=O)N(C)C)c2)cc(-c2ccc3ncsc3c2)n1` (stereo unspecified), the IC50 was found to be 500 nM.

As to `Cc1nc(NCCc2ccc(O)cc2)cc(-c2ccc3ncsc3c2)n1`, the IC50 was greater than 1000 nM. Still for that read-out and setting: as for `COc1cccc([C@@H](C)Nc2cc(-c3ccc4occ(C)c4c3)nc(C)n2)c1`, the figure is greater than 1000 nM; as for `Cc1nc(NCCC(C)C)cc(-c2ccc3ncsc3c2)n1`, 500 nM. On the same count and under the same terms, as for `COC(=O)CN1CCc2ccc(-c3cc(N[C@@H]4CCCc5ccccc54)nc(C)n3)cc21`, the figure is greater than 1000 nM; as for `Cc1nc(NC(C)c2cccc(N3CCOCC3)c2)cc(-c2ccc3ncsc3c2)n1` (stereo unspecified), 500 nM. On to `CCCCCC(C)Nc1cc(-c2ccc3ncsc3c2)nc(C)n1` (stereo unspecified), for which the IC50 was greater than 1000 nM.

`Cc1nc(NC(C)c2cccc(OCCn3cccc3)c2)cc(-c2ccc3ncsc3c2)n1` (stereo unspecified): the IC50 was greater than 1000 nM.

As for `Cc1nc(NC(C)c2cccc(-c3cnn(C)c3)c2)cc(-c2ccc3c(c2)CCO3)n1` (stereo unspecified), the IC50 came out at 500 nM. Same read-out and setting: as for `COc1ccc(F)c(CNc2cc(-c3ccc4ncsc4c3)nc(C)n2)c1Cl`, the figure is greater than 1000 nM; as for `Cc1nc(N[C@@H](C)c2cccc(-c3ccccc3)c2)cc(-c2ccc3ncsc3c2)n1`, greater than 1000 nM. As to `Cc1nc(NC2CC(C)(C)Oc3ccccc32)cc(-c2ccc3ncsc3c2)n1` (stereo unspecified), the IC50 worked out at 500 nM. The same measure, in the same setting: then `Cc1nc(NC(C)c2cccc(Br)c2)cc(-c2ccc3ncsc3c2)n1` (stereo unspecified), with 500 nM; and `Cc1nc(N[C@@H]2CCCc3ccccc32)cc(-c2ccc3c(ccn3C)c2)n1`, with 500 nM; and `Cc1nc(NC(C)c2cccc(OCCCN(C)C)c2)cc(-c2ccc3ncsc3c2)n1` (stereo unspecified), with 500 nM. Still for that read-out and setting: then `Cc1nc(NC(C)c2cccc(OCc3ccn(C)n3)c2)cc(-c2ccc3occc3c2)n1` (stereo unspecified), with 500 nM; and `Cc1nc(N[C@@H](C)c2cccc(-c3ccccc3)c2)cc(-c2ccc3occ(C)c3c2)n1`, with 500 nM. Same read-out and setting: then `Cc1nc(NCCC2=CCCCC2)cc(-c2ccc3ncsc3c2)n1`, with 500 nM; and `Cc1nc(NC(C)c2cccc(OCC(O)CF)c2)cc(-c2ccc3ncsc3c2)n1` (stereo unspecified), with 500 nM; and `CCCOc1cccc(C(C)Nc2cc(-c3ccc4ncsc4c3)nc(C)n2)c1` (stereo unspecified), with greater than 1000 nM. Consider `Cc1nc(N[C@@H](C)C(C)(C)C)cc(-c2ccc3ncsc3c2)n1`, for which the IC50 is greater than 1000 nM.

The target of the next test is T1, 6-phosphofructo-2-kinase/fructose-2,6-bisphosphatase 3. As to the kind of experiment: Inhibition of iPFK2 (unknown origin) assessed as reduction in enzyme-mediated fructose-6-phosphate phosphorylation by measuring NADH absorbance pre-incubated for 10 mins before ATP/substrate addition followed by incubation for 1 hr by UV-Visible spectrometry based iPFK-2/PPI-PFK coupled enzyme assay.
Take `Cc1nc(NC(C)c2cccc(OCC#N)c2)cc(-c2ccc3ncsc3c2)n1` (stereo unspecified): the IC50 amounted to 500 nM. Same read-out and setting: as for `Cc1nc(NCC2CCCN(C(=O)C3CCC3)C2)cc(-c2ccc3ncsc3c2)n1` (stereo unspecified), the figure is greater than 1000 nM.

Regarding `CCN(C)C(=O)COc1cccc(C(C)Nc2cc(-c3ccc4ncsc4c3)nc(C)n2)c1` (stereo unspecified), the concentration for half-maximal inhibition (IC50) stood at 500 nM. For the molecule `Cc1nc(N[C@@H]2CCCc3ccccc32)cc(-c2ccc(Cl)c(COC(C)C(=O)O)c2)n1` (stereo partly specified), the half-maximal inhibitory concentration (IC50) came to 500 nM.

Take `Cc1nc(NC(C)c2cccc(OCCN(C)C)c2)cc(-c2ccc3ncsc3c2)n1` (stereo unspecified): the IC50 is 500 nM.

As for `COc1cccc([C@H](C)Nc2cc(-c3ccc(C)c(N)c3)nc(C)n2)c1`, the IC50 is greater than 1000 nM.

As for `Cc1nc(N[C@@H]2CCCc3ccccc32)cc(-c2ccc3nonc3c2)n1`, the IC50 was greater than 1000 nM. Still for that read-out and setting: as for `Cc1nc(N[C@@H]2CCCc3ccccc32)cc(-c2ccc3ncccc3c2)n1`, the figure is greater than 1000 nM; as for `Cc1nc(NC(C)c2cccc(OCCN(C)C)c2)cc(-c2ccc3occ(C)c3c2)n1` (stereo unspecified), greater than 1000 nM; as for `Cc1nc(NCC2CCCN(C(=O)CN(C)C(=O)c3ccccc3)C2)cc(-c2ccc3ncsc3c2)n1` (stereo unspecified), greater than 1000 nM. Same read-out and setting: then `Cc1nc(NC(C)c2cccc(OCC(=O)N3CCC3)c2)cc(-c2ccc3ncsc3c2)n1` (stereo unspecified), with greater than 1000 nM; and `CCN(CC)C(=O)COc1cccc(C(C)Nc2cc(-c3ccc4c(c3)N(C)CCO4)nc(C)n2)c1` (stereo unspecified), with greater than 1000 nM; and `Cc1nc(NC(C)c2cccc(S(N)(=O)=O)c2)cc(-c2ccc3ncsc3c2)n1` (stereo unspecified), with 500 nM. The same measure, in the same setting: as for `Cc1nc(N[C@@H](C)c2cccc(/C=C/C(=O)NC(C)(C)C)c2)cc(-c2ccc3ncsc3c2)n1`, the figure is 500 nM; as for `Cc1nc(NC(C)c2cccc(OCC(=O)N3CCCC3)c2)cc(-c2ccc3ncsc3c2)n1` (stereo unspecified), greater than 1000 nM. For the molecule `Cc1nc(NC(C)c2cccc(-c3nn[nH]n3)c2)cc(-c2ccc3ncsc3c2)n1` (stereo unspecified), the IC50 is greater than 1000 nM. Same read-out and setting: then `Cc1nc(N[C@@H]2CCCc3ccccc32)cc(-c2ccc3nccnc3c2)n1`, with greater than 1000 nM. The same measure, in the same setting: as for `COCCNC(=O)COc1cccc(C(C)Nc2cc(-c3ccc4ncsc4c3)nc(C)n2)c1` (stereo unspecified), the figure is 500 nM; as for `Cc1nc(NC(C)c2cccc(-c3cnn(C)c3)c2)cc(-c2ccc(F)c(Cl)c2)n1` (stereo unspecified), greater than 1000 nM. Take `COc1cccc(Oc2cc(N[C@@H]3CCCc4ccccc43)nc(C)n2)c1`: the IC50 was greater than 1000 nM. The same measure, in the same setting: as for `Cc1nc(N[C@@H]2CCCc3ccccc32)cc(-c2ccc3c(c2)C(=O)C=CC3)n1`, the figure is 500 nM. As for `Cc1nc(NC(C)c2cccc(-c3cnn(CC(=O)O)c3)c2)cc(-c2ccc3ncsc3c2)n1` (stereo unspecified), the IC50 turned out to be 500 nM. Turning to `Cc1nc(NC(C)c2cccc(NC(=O)CN(C)C(=O)OC(C)(C)C)c2)cc(-c2ccc3ncsc3c2)n1` (stereo unspecified), the IC50 is greater than 1000 nM. With `Cc1nc(NCC2CCCN(C(=O)C3CCCCC3)C2)cc(-c2ccc3ncsc3c2)n1` (stereo unspecified), the IC50 is greater than 1000 nM.

Regarding `Cc1nc(NC(C)c2cc(O)ccc2F)cc(-c2ccc3ncsc3c2)n1` (stereo unspecified), the half-inhibitory concentration (IC50) was greater than 1000 nM. On the same count and under the same terms, then `Cc1nc(NC(C)c2cccc(-c3cnn(C)c3)c2)cc(-c2ccc3ccccc3c2)n1` (stereo unspecified), with greater than 1000 nM; and `Cc1nc(NC(C)c2cccc(OCC(N)=O)c2)cc(-c2cc3ccccc3n2C)n1` (stereo unspecified), with 500 nM.

Consider `Cc1nc(NCc2cc(OCC(=O)N3CCOCC3)ccc2F)cc(-c2ccc3ncsc3c2)n1`, for which the half-inhibitory concentration (IC50) was greater than 1000 nM. Still for that read-out and setting: as for `COc1cccc([C@H](C)Nc2cc(-c3ccc4ncccc4c3)nc(C)n2)c1`, the figure is greater than 1000 nM; as for `Cc1nc(NCC2CCCN(C(=O)c3ccc[nH]3)C2)cc(-c2ccc3ncsc3c2)n1` (stereo unspecified), greater than 1000 nM. Same read-out and setting: then `CC(=O)N1CCN(CCOc2cccc(C(C)Nc3cc(-c4ccc5ncsc5c4)nc(C)n3)c2)CC1` (stereo unspecified), with 500 nM; and `Cc1nc(NC(C)c2cccc(OCC(=O)N3CC3C)c2)cc(-c2ccc3ncsc3c2)n1` (stereo unspecified), with 500 nM; and `Cc1nc(NC(C)c2cccc(OCC(=O)N(C)C)c2)cc(-c2ccc3ncsc3c2)n1` (stereo unspecified), with 500 nM. Still for that read-out and setting: as for `Cc1nc(NC(C)c2cccc(OCC[C@H](O)c3ccccc3)c2)cc(-c2ccc3ncsc3c2)n1` (stereo partly specified), the figure is greater than 1000 nM. On to `Cc1nc(NCc2cc(OCC(=O)N(C)C)ccc2F)cc(-c2ccc3ncsc3c2)n1`, for which the IC50 worked out at 500 nM. On the same count and under the same terms, as for `Cc1cc(COc2cccc([C@@H](C)Nc3cc(-c4ccc5ncsc5c4)nc(C)n3)c2)n(C)n1`, the figure is greater than 1000 nM. On the same count and under the same terms, as for `Cc1nc(NC(C)c2cccc(-c3cnn(C)c3)c2)cc(-c2ccc(F)c(F)c2)n1` (stereo unspecified), the figure is 500 nM; as for `CCN(CC)c1ncc(-c2cccc([C@H](C)Nc3cc(-c4ccc5ncsc5c4)nc(C)n3)c2)cn1`, 500 nM. As to `Cc1nc(NC(C)c2cccc(OCC(=O)NC3CC3)c2)cc(-c2ccc3ncsc3c2)n1` (stereo unspecified), the IC50 worked out at 500 nM. `Cc1nc(NC(C)c2cccc(OCCCN3CCCC3)c2)cc(-c2ccc3ncsc3c2)n1` (stereo unspecified): the IC50 came to 500 nM. On the same count and under the same terms, as for `CCN(CC)C(=O)COc1cccc(C(C)Nc2cc(-c3ccc4ccccc4c3)nc(C)n2)c1` (stereo unspecified), the figure is 500 nM. Still for that read-out and setting: then `Cc1nc(NC(C)c2cccc(OCC(=O)N3CCCCC3)c2)cc(-c2ccc3ncsc3c2)n1` (stereo unspecified), with 500 nM. On the same count and under the same terms, then `Cc1nc(NC(C)c2cccc(/C(N)=N/O)c2)cc(-c2ccc3ncsc3c2)n1` (stereo unspecified), with greater than 1000 nM.

Turning to `Cc1nc(NC(C)c2cccc(-c3cnn(C)c3)c2)cc(-c2cccc(N(C)C)c2)n1` (stereo unspecified), the IC50 was greater than 1000 nM. Turning to `COc1cc(C(C)Nc2cc(-c3ccc4ncsc4c3)nc(C)n2)ccn1` (stereo unspecified), the IC50 stood at 500 nM. The same measure, in the same setting: then `Cc1nc(NC(C)c2cccc(OCC(=O)O)c2)cc(-c2ccc3ncsc3c2)n1` (stereo unspecified), with greater than 1000 nM; and `Cc1nc(N[C@H](C)c2cccc(-c3cnn(C)c3)c2)cc(-c2ccc3ncsc3c2)n1`, with greater than 1000 nM. The same measure, in the same setting: as for `COc1ccc(-c2cc(NC(C)c3cccc(-c4cnn(C)c4)c3)nc(C)n2)c(F)c1` (stereo unspecified), the figure is greater than 1000 nM.
